Laboratory results published in paper PMC8401933 (Molecules, 2021).

Experiments:
Experiment in all cases: KINOMEscan binding
CSF1R = target: T1, CSF1R (Homo sapiens, UniProt P07333); conditions: read-out: Percent Control
T1 construct: purchased Eurofins DiscoverX KINOMEscan

ASK2 = target: T2, ASK2 (Homo sapiens, UniProt O95382); conditions: read-out: Percent Control
T2 construct: purchased Eurofins DiscoverX KINOMEscan

AKT1 = target: T3, AKT1 (Homo sapiens, UniProt P31749); conditions: read-out: Percent Control
T3 construct: purchased Eurofins DiscoverX KINOMEscan

PRKCE = target: T4, PRKCE (Homo sapiens, UniProt Q02156); conditions: read-out: Percent Control
T4 construct: purchased Eurofins DiscoverX KINOMEscan

DCAMKL2 = target: T5, DCAMKL2 (Homo sapiens, UniProt Q8N568); conditions: read-out: Percent Control
T5 construct: purchased Eurofins DiscoverX KINOMEscan

[1] = target: T6, JAK1(JH1domain-catalytic) (Homo sapiens, UniProt P23458); conditions: read-out: Percent Control
T6 construct: JAK1(JH1domain-catalytic); purchased Eurofins DiscoverX KINOMEscan

BMPR2 = target: T7, BMPR2 (Homo sapiens, UniProt Q13873); conditions: read-out: Percent Control
T7 construct: purchased Eurofins DiscoverX KINOMEscan

PRKCD = target: T8, PRKCD (Homo sapiens, UniProt Q05655); conditions: read-out: Percent Control
T8 construct: purchased Eurofins DiscoverX KINOMEscan

EPHB1 = target: T9, EPHB1 (Homo sapiens, UniProt P54762); conditions: read-out: Percent Control
T9 construct: purchased Eurofins DiscoverX KINOMEscan

PAK4 = target: T10, PAK4 (Homo sapiens, UniProt O96013); conditions: read-out: Percent Control
T10 construct: purchased Eurofins DiscoverX KINOMEscan

MYO3B = target: T11, MYO3B (Homo sapiens, UniProt Q8WXR4); conditions: read-out: Percent Control
T11 construct: purchased Eurofins DiscoverX KINOMEscan

FLT4 = target: T12, FLT4 (Homo sapiens, UniProt P35916); conditions: read-out: Percent Control
T12 construct: purchased Eurofins DiscoverX KINOMEscan

[2] = target: T13, JAK1(JH2domain-pseudokinase) (Homo sapiens, UniProt P23458); conditions: read-out: Percent Control
T13 construct: JAK1(JH2domain-pseudokinase); purchased Eurofins DiscoverX KINOMEscan

FLT3(D835H) = target: T14, FLT3(D835H) (Homo sapiens, UniProt P36888, D835H); conditions: read-out: Percent Control
T14 construct: purchased Eurofins DiscoverX KINOMEscan

MAPKAPK2 = target: T15, MAPKAPK2 (Homo sapiens, UniProt P49137); conditions: read-out: Percent Control
T15 construct: purchased Eurofins DiscoverX KINOMEscan

GRK2 = target: T16, GRK2 (Homo sapiens, UniProt P25098); conditions: read-out: Percent Control
T16 construct: purchased Eurofins DiscoverX KINOMEscan

MLK1 = target: T17, MLK1 (Homo sapiens, UniProt P80192); conditions: read-out: Percent Control
T17 construct: purchased Eurofins DiscoverX KINOMEscan

ICK = target: T18, ICK (Homo sapiens, UniProt Q9UPZ9); conditions: read-out: Percent Control
T18 construct: purchased Eurofins DiscoverX KINOMEscan

MRCKA = target: T19, MRCKA (Homo sapiens, UniProt Q5VT25); conditions: read-out: Percent Control
T19 construct: purchased Eurofins DiscoverX KINOMEscan

CAMK1G = target: T20, CAMK1G (Homo sapiens, UniProt Q96NX5); conditions: read-out: Percent Control
T20 construct: purchased Eurofins DiscoverX KINOMEscan

p38-alpha = target: T21, p38-alpha (Homo sapiens, UniProt Q16539); conditions: read-out: Percent Control
T21 construct: purchased Eurofins DiscoverX KINOMEscan

SLK = target: T22, SLK (Homo sapiens, UniProt Q9H2G2); conditions: read-out: Percent Control
T22 construct: purchased Eurofins DiscoverX KINOMEscan

IRAK4 = target: T23, IRAK4 (Homo sapiens, UniProt Q9NWZ3); conditions: read-out: Percent Control
T23 construct: purchased Eurofins DiscoverX KINOMEscan

OSR1 = target: T24, OSR1 (Homo sapiens, UniProt O95747); conditions: read-out: Percent Control
T24 construct: purchased Eurofins DiscoverX KINOMEscan

CSNK2A1 = target: T25, CSNK2A1 (Homo sapiens, UniProt P68400)
T25 construct: purchased Eurofins DiscoverX KINOMEscan

PIK3CA(C420R) = target: T26, PIK3CA(C420R) (Homo sapiens, UniProt P42336, C420R); conditions: read-out: Percent Control
T26 construct: purchased Eurofins DiscoverX KINOMEscan

MEK3 = target: T27, MEK3 (Homo sapiens, UniProt P46734); conditions: read-out: Percent Control
T27 construct: purchased Eurofins DiscoverX KINOMEscan

PIP5K2C = target: T28, PIP5K2C (Homo sapiens, UniProt Q8TBX8); conditions: read-out: Percent Control
T28 construct: purchased Eurofins DiscoverX KINOMEscan

MARK2 = target: T29, MARK2 (Homo sapiens, UniProt Q7KZI7); conditions: read-out: Percent Control
T29 construct: purchased Eurofins DiscoverX KINOMEscan

[3] = target: T30, RSK3(Kin.Dom.2-C-terminal) (Homo sapiens, UniProt Q15349); conditions: read-out: Percent Control
T30 construct: RSK3(Kin.Dom.2-C-terminal); purchased Eurofins DiscoverX KINOMEscan

ERK3 = target: T31, ERK3 (Homo sapiens, UniProt Q16659); conditions: read-out: Percent Control
T31 construct: purchased Eurofins DiscoverX KINOMEscan

AURKB = target: T32, AURKB (Homo sapiens, UniProt Q96GD4); conditions: read-out: Percent Control
T32 construct: purchased Eurofins DiscoverX KINOMEscan

SGK3 = target: T33, SGK3 (Homo sapiens, UniProt Q96BR1); conditions: read-out: Percent Control
T33 construct: purchased Eurofins DiscoverX KINOMEscan

ERK4 = target: T34, ERK4 (Homo sapiens, UniProt P31152); conditions: read-out: Percent Control
T34 construct: purchased Eurofins DiscoverX KINOMEscan

FLT3(K663Q) = target: T35, FLT3(K663Q) (Homo sapiens, UniProt P36888, K663Q); conditions: read-out: Percent Control
T35 construct: purchased Eurofins DiscoverX KINOMEscan

CAMK1B = target: T36, CAMK1B (Homo sapiens, UniProt Q6P2M8); conditions: read-out: Percent Control
T36 construct: purchased Eurofins DiscoverX KINOMEscan

FES = target: T37, FES (Homo sapiens, UniProt P07332); conditions: read-out: Percent Control
T37 construct: purchased Eurofins DiscoverX KINOMEscan

CSNK1A1 = target: T38, CSNK1A1 (Homo sapiens, UniProt P48729); conditions: read-out: Percent Control
T38 construct: purchased Eurofins DiscoverX KINOMEscan

CLK3 = target: T39, CLK3 (Homo sapiens, UniProt P49761); conditions: read-out: Percent Control
T39 construct: purchased Eurofins DiscoverX KINOMEscan

FGFR4 = target: T40, FGFR4 (Homo sapiens, UniProt P22455); conditions: read-out: Percent Control
T40 construct: purchased Eurofins DiscoverX KINOMEscan

RIPK5 = target: T41, RIPK5 (Homo sapiens, UniProt Q6XUX3); conditions: read-out: Percent Control
T41 construct: purchased Eurofins DiscoverX KINOMEscan

GRK7 = target: T42, GRK7 (Homo sapiens, UniProt Q8WTQ7); conditions: read-out: Percent Control
T42 construct: purchased Eurofins DiscoverX KINOMEscan

PIK3CB = target: T43, PIK3CB (Homo sapiens, UniProt P42338); conditions: read-out: Percent Control
T43 construct: purchased Eurofins DiscoverX KINOMEscan
T43 sequence (P42338 whole entry): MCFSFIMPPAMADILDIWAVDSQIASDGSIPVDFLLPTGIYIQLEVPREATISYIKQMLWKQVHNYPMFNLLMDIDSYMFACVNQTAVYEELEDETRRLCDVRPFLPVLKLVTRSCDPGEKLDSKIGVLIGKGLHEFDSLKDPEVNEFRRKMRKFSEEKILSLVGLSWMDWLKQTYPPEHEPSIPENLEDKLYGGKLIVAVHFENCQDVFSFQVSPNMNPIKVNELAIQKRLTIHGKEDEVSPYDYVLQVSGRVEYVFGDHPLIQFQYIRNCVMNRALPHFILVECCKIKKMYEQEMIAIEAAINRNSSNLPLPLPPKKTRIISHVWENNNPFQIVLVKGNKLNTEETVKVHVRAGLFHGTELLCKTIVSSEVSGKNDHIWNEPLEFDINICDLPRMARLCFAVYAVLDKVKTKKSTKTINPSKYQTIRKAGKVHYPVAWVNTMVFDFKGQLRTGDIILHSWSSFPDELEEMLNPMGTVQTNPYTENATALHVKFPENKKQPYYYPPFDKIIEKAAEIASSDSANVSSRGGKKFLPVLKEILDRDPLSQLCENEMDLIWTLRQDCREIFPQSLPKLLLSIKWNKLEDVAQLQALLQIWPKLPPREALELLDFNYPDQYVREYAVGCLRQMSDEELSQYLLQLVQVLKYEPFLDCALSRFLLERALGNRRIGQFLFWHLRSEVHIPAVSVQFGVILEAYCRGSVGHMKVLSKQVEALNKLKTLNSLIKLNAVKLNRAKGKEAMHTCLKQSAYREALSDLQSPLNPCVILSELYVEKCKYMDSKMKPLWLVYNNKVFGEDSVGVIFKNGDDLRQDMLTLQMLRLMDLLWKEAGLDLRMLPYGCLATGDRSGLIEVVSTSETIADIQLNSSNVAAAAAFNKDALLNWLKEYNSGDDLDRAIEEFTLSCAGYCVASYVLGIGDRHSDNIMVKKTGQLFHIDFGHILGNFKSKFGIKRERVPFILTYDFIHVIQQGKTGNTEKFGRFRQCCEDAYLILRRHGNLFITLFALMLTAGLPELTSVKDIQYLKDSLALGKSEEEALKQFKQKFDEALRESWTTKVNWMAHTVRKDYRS

T25 sequence (P68400 whole entry): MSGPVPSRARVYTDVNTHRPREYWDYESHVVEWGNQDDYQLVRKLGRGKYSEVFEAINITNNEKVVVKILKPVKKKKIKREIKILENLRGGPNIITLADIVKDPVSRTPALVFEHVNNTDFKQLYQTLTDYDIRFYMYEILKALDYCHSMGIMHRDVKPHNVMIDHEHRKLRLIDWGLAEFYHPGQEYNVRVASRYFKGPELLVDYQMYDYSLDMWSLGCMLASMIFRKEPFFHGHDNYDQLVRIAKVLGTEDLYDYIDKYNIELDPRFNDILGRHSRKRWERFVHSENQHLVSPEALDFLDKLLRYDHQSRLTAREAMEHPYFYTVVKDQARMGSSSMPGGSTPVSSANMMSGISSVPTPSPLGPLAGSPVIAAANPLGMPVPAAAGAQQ
T38 sequence (P48729 whole entry): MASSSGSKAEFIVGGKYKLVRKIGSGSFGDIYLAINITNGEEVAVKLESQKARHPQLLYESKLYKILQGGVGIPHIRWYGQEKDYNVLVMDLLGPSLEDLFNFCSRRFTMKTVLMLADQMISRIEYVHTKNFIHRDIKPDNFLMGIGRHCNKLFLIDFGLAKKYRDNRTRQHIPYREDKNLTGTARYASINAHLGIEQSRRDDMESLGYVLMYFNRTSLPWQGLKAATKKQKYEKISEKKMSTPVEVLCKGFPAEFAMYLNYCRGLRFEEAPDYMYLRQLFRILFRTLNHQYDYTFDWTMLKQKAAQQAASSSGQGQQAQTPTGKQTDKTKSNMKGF
T23 sequence (Q9NWZ3 whole entry): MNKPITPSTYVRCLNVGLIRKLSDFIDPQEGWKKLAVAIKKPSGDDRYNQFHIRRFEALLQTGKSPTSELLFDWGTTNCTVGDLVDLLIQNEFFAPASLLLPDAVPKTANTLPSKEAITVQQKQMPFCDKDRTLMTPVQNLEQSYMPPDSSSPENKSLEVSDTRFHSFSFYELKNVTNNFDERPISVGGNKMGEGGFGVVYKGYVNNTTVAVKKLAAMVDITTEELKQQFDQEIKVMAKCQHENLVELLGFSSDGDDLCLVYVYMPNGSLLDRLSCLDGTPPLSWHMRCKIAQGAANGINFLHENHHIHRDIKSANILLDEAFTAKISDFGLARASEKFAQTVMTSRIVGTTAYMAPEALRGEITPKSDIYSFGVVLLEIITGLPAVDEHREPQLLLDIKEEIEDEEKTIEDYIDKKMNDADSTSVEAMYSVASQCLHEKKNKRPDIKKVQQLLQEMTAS
T31 sequence (Q16659 whole entry): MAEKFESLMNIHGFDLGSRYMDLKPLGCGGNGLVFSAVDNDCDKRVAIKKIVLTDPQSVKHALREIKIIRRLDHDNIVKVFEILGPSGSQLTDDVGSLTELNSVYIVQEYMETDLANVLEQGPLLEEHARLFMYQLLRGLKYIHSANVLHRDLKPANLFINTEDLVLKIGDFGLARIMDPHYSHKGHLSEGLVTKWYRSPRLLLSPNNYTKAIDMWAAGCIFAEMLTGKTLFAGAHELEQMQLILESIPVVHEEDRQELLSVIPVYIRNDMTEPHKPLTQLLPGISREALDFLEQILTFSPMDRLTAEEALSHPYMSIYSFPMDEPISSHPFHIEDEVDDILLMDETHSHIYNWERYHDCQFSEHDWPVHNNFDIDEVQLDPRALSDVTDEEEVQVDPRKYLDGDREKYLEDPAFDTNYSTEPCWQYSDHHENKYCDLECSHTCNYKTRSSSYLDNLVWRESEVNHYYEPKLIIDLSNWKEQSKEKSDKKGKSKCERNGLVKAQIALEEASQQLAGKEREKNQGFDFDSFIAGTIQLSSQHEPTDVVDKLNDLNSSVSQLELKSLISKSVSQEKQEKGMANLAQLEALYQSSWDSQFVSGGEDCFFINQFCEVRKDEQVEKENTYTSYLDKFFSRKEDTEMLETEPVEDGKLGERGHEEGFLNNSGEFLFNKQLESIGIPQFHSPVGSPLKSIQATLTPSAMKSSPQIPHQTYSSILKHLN
T4 sequence (Q02156 whole entry): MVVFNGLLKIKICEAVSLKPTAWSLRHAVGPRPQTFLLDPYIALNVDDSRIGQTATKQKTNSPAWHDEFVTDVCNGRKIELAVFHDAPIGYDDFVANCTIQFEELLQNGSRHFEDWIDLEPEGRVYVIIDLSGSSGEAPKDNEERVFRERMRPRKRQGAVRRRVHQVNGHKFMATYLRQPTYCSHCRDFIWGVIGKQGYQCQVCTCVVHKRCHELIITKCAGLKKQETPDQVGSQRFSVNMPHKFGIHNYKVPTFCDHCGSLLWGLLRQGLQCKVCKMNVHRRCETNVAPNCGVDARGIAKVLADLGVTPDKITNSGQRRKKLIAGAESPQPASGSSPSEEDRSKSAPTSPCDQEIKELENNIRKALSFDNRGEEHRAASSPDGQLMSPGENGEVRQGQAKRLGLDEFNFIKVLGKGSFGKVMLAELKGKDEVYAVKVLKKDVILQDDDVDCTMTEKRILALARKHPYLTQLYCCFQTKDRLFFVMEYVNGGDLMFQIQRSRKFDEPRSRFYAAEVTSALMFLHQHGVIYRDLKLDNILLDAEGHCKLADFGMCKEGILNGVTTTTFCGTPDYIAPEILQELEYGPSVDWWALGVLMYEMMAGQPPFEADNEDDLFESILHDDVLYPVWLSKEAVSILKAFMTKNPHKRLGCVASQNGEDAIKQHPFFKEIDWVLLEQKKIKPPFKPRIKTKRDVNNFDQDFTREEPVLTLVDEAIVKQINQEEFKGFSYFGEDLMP
T16 sequence (P25098 whole entry): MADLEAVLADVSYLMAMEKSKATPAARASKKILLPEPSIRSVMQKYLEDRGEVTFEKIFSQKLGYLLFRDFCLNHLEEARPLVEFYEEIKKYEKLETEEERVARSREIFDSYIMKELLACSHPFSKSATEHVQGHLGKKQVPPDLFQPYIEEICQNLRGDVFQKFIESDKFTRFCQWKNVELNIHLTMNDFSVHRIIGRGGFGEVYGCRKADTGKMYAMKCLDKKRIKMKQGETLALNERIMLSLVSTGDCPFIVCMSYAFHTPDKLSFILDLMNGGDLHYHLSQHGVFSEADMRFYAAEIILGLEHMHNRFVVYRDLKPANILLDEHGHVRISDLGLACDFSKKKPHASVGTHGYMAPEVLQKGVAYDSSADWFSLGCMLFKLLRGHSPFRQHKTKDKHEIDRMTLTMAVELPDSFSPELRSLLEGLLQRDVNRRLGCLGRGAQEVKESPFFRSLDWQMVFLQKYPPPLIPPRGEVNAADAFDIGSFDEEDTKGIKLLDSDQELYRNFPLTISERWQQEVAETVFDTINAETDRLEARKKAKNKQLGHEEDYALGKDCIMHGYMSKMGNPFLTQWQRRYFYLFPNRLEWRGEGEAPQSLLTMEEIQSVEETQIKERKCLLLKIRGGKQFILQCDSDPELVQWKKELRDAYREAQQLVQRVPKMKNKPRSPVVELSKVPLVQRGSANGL
T6 sequence (P23458 854-1154 limits assumed): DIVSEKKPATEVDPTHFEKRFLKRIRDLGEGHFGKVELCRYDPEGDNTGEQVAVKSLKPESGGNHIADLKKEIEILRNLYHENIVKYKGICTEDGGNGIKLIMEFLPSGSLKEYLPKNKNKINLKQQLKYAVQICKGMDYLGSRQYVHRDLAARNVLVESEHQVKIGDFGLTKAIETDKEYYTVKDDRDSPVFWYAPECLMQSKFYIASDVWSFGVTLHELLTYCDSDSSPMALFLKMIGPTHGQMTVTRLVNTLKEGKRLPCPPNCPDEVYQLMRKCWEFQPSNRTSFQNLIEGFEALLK

CC(C)NC(=O)COc1cccc(-c2nc(Nc3ccc4[nH]ncc4c3)c3ccccc3n2)c1 [KD025, 2-(3-(4-((1H-indazol-5-yl)amino)quinazolin-2-yl)phenoxy)-N-isopropylacetamide]
remaining binding at 10 µM (CSF1R): 99% | remaining binding at 10 µM (ASK2): 95% | remaining binding at 10 µM (AKT1): 88% | remaining binding at 10 µM (PRKCE): 88% | remaining binding at 10 µM (DCAMKL2): 79% | remaining binding at 10 µM [1]: 99% | remaining binding at 10 µM (BMPR2): 72% | remaining binding at 10 µM (PRKCD): 70% | remaining binding at 10 µM (EPHB1): 98% | remaining binding at 10 µM (PAK4): 100% | remaining binding at 10 µM (MYO3B): 100% | remaining binding at 10 µM (FLT4): 86% | remaining binding at 10 µM [2]: 39% | remaining binding at 10 µM (FLT3(D835H)): 22% | remaining binding at 10 µM (MAPKAPK2): 100% | remaining binding at 10 µM (GRK2): 89% | remaining binding at 10 µM (MLK1): 87% | remaining binding at 10 µM (ICK): 100% | remaining binding at 10 µM (MRCKA): 57% | remaining binding at 10 µM (CAMK1G): 88% | remaining binding at 10 µM (p38-alpha): 100% | remaining binding at 10 µM (SLK): 59% | remaining binding at 10 µM (IRAK4): 100% | remaining binding at 10 µM (OSR1): 100% | CK2α and CK2α’ inhibited less than ROCK2 (POC) (CSNK2A1; 10 μM): 10 fold | remaining binding at 10 µM (CSNK2A1; CSNK2A1, read-out: Percent Control): 0.5% | remaining binding at 10 µM (PIK3CA(C420R)): 86% | remaining binding at 10 µM (MEK3): 77% | remaining binding at 10 µM (PIP5K2C): 71% | remaining binding at 10 µM (MARK2): 71% | remaining binding at 10 µM [3]: 89% | remaining binding at 10 µM (ERK3): 64% | remaining binding at 10 µM (AURKB): 61% | remaining binding at 10 µM (SGK3): 79% | remaining binding at 10 µM (ERK4): 100% | remaining binding at 10 µM (FLT3(K663Q)): 55% | remaining binding at 10 µM (CAMK1B): 97% | remaining binding at 10 µM (FES): 94% | remaining binding at 10 µM (CSNK1A1): 80% | remaining binding at 10 µM (CLK3): 68% | remaining binding at 10 µM (FGFR4): 91% | remaining binding at 10 µM (RIPK5): 64% | remaining binding at 10 µM (GRK7): 80% | remaining binding at 10 µM (PIK3CB): 89%
